Test results: paper PMC4153893, “Synergetic cytotoxic activity toward breast cancer cells enhanced by the combination of Antp-TPR hybrid peptide targeting Hsp90 and Hsp70-targeted peptide” (BMC Cancer, 2014)
Ends that are not written are not given here.

Key:
[1] = system: cancer cells; conditions: in the presence of 2-phenylethynesulfonamide; cited from earlier work
Description: It was recently reported that VER155008 could bind to the ...

[2] = system: Hsp70 / Hsp70 promoter in BT20 cells; experiment: Hsp70 expression (western blotting) and Hsp70 promoter activation (reporter assay, LV200 single-cell imaging); type: cell-based, human
Protocol: Western blotting was carried out as described previously. Briefly, protein extracts were prepared from cells lysed with reporter lysis buffer (Promega, Madison, WI, USA), separated by SDS-PAGE and transferred to nitrocellulose filters using the iBlot system (Invitrogen, Carlsbad, CA, USA) according to the manufacturer’s protocol. Quenched membranes were probed with antibodies and analyzed using an enhanced reagent of Chemi-Lumi One Super (Nacalai Tesque) with a LAS-3000 LuminoImage analyzer (Fujifilm, Tokyo, Japan). Densitometric analysis was performed by Multi Gauge software V3.0 (Fujifilm) using the bands obtained from western blotting, in which actin as the loading control was used for normalizing of each bands.
A reporter assay was carried out as described previously. […] The relative activity of firefly luciferase to Renilla luciferase activity was determined in triplicate (means ± SD) using the Dual-Glo Luciferase Assay System (Promega).
Stably transfected BT20 cells with pHsp70Pro-Luc were prepared after transient transfection with Lipofectamine LTX according to the manufacturer’s protocol in a selective medium containing 200 μg/ml hygromycine B (Nacalai Tesque). Luminescence images at the single-cell level were obtained using the LV200 luminescence imaging system (Olympus) as described previously. […]

[3] = system: BT20 cells; experiment: Cell viability assay (WST-8); type: cell-based, human
Protocol: (§1) Cell viability was determined by WST-8 assay as described previously. Briefly, cells were seeded onto 96-well plates at 2000–3000 cells/well overnight. After incubating with the test peptides, the cell viability assay was carried out using Living Cell Count Reagent SF (Nacalai Tesque) according to the manufacturer’s protocol. Absorbance was measured at 450 nm using a 96-well microplate reader (GE Healthcare Bioscience, Piscataway, NJ).

[4] = system: BT474 cells; experiment: Cell viability assay (WST-8); type: cell-based, human; conditions: 24 h, mean of three independent observations each performed in triplicate, read-out: IC50 of Antp-TPR
Protocol: as §1

[5] = system: MDA-MB-231 cells; experiment: Cell viability assay (WST-8); type: cell-based, human; conditions: 24 h
Protocol: as §1

[6] = system: MDA-MB-361 cells; experiment: Cell viability assay (WST-8); type: cell-based, human; conditions: 24 h, mean of three independent observations each performed in triplicate, read-out: IC50 of Antp-TPR
Protocol: as §1

[7] = system: normal mammary epithelial cells (MCF-10A); experiment: Cell viability assay (WST-8); type: cell-based, human; conditions: 24 h, R11-Hsp70 10 μM where present, compared with cancer cell lines
Protocol: as §1

[8] = system: MDA-MB-231, BT20, BT474, and MDA-MB-361 cell lines; experiment: Cell viability assay (WST-8), summary over four breast cancer cell lines; type: cell-based, human; conditions: MDA-MB-231, BT20, BT474, MDA-MB-361; summary of Table 1; read-out: IC50 values of Antp-TPR alone, range over four cell lines
Protocol: as §1

[9] = system: BT20, MDA-MB-231, or MCF-10A cells; experiment: Cellular uptake by flow cytometry; type: cell-based, human; conditions: BT20, MDA-MB-231, MCF-10A, Antp-TPR-TAMRA 10 μM, R11-Hsp70 or R11-Hsp70 scramble 10 μM, 30 min
Protocol: Flow cytometry assay was performed as described previously. […] The cell pellets were resuspended, and then flow cytometry analysis was performed by FACSCalibur (BD Bioscience, San Jose, CA, USA). Data were analyzed using CellQuest Software (BD Bioscience). Annexin V and PI staining was performed using Annexin V-Fluorescein Staining Kit (Wako Chemicals, Osaka, Japan) by multiparametric flow cytometry assay as described previously.

NS(=O)(=O)C#Cc1ccccc1 [2-phenylethynesulfonamide]
effect on the cytotoxic activity of 17-AAG [1]: the cytotoxic activity of 17-AAG was increased

C=CCNC1=C2C[C@@H](C)C[C@H](OC)[C@H](O)[C@@H](C)/C=C(\C)[C@H](OC(N)=O)[C@@H](OC)/C=C\C=C(/C)C(=O)NC(=CC1=O)C2=O [17-AAG, 17-allylamino-demethoxygeldanamycin]
activation of the Hsp70 promoter ([2]; BT20 cells with pHsp70Pro-Luc, Antp-TPR 20 μM, R11-Hsp70 10 μM, 17-AAG 0.5 μM, luminometer 18 h and LV200 single-cell imaging): induced activation at the single-cell level | up-regulation of Hsp70 and the promoter activity of this protein ([2]; BT20 cells, 0.5 μM 17-AAG, 6 h or 18 h western blotting, promoter assay 18 h): induced both

N#Cc1ccc(COC[C@H]2O[C@@H](n3c(NCc4ccc(Cl)c(Cl)c4)nc4c(N)ncnc43)[C@H](O)[C@@H]2O)cc1 [VER155008, reference compound]
effect on the cytotoxic activity of 17-AAG ([3]; 5 μM VER155008, WST-8): did not have any synergetic effect on the cytotoxic activity of 17-AAG | effect on the cytotoxic activity of Antp-TPR ([3]; 5 μM VER155008, WST-8): cytotoxic activity of Antp-TPR toward cancer cells was increased

RQIKIWFQNRRMKWKKKAYARIGNSYFK [Antp-TPR]
IC50 ([3]; 24 h, WST-8, mean of three independent observations each performed in triplicate, read-out: IC50 of Antp-TPR): 26.1 ± 3 µM | IC50 [4]: 34.1 ± 2.7 µM | IC50 ([5]; WST-8, mean of three independent observations each performed in triplicate, read-out: IC50 of Antp-TPR): 31.2 ± 3 µM | IC50 [6]: 33.8 ± 2.6 µM | cytotoxic activity toward normal mammary epithelial cells [7]: less than that of these peptides against cancer cell lines | IC50 [8]: 26 to 34 µM

RRRRRRRRRRRGGGTPTYRASCFYHYK [R11-Hsp70scramble]
effect on the cytotoxic activity of Antp-TPR ([3]; R11-Hsp70scramble 10 μM, 24 h): no effective increase in the cytotoxic activity of Antp-TPR | effect on the cytotoxic activity of Antp-TPR ([5]; R11-Hsp70scramble 10 μM): no effective increase in the cytotoxic activity of Antp-TPR

RRRRRRRRRRRGGGYCAYYSPRHKTTF [R11-Hsp70]
effect on the cytotoxic activity of 17-AAG ([3]; R11-Hsp70 10 μM, 24 h): did not affect the cytotoxic activity of 17-AAG | enhancement for cellular uptake of Antp-TPR [9]: higher than that of Antp-TPR by R11-Hsp70 scramble peptide
